One experiment addresses T1, human RORγt (Ligand Binding Domain) (Homo sapiens, UniProt P51449).
T1 construct: purchased Crelux (Planegg, Germany) batch no PC5032-1
T1 sequence (P51449 269-508 limits assumed): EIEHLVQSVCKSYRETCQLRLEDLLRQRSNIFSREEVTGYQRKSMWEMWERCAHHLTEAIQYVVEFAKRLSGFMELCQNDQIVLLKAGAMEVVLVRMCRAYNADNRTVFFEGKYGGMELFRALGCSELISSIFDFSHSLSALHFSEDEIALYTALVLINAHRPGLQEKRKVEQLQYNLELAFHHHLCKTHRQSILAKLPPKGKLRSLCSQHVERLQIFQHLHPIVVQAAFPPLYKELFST
The experiment in a line: Fluorescence Polarization (FP) Assay.
Settings: not given
Summed up: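 Binding to the ligand pocket followed by fluorescence polarization with a TAMRA-tagged RORγt ligand probe of 910 g/mole. Negative control wells received DMSO only.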
In general terms: Fluorescence polarisation rises when a labelled molecule tumbles more slowly, as on binding a larger partner.
Regarding `Oc1cc(CNc2ncnc(N3CCCC3c3ccc(C(F)(F)F)cc3)c2F)on1` (stereo not drawn) [Example 216, 5-[[[5-fluoro-6-[2-[4-(trifluoromethyl)phenyl]pyrrolidin-1-yl]pyrimidin-4-yl]amino]methyl]isoxazol-3-ol], the IC50 is less than 10 µM.

The same experiment, now with this note: Fluorescence Polarization (FP) Assay; values given as upper bounds of activity ranges; read-out: FP activity range.
As to `O=S1(=O)CCCC1CNc1ncnc(N2CCC[C@@H]2c2ccc(C(F)(F)F)cc2)c1F` (stereo partly drawn) [Example 170, N-[(1,1-dioxothiolan-2-yl)methyl]-5-fluoro-6-[(2R)-2-[4-(trifluoromethyl)phenyl]pyrrolidin-1-yl]pyrimidin-4-amine], the IC50 was less than 10 µM. On the same count and under the same terms, as for `CC(C)(C)C1OCCCC1CNc1ncnc(N2CCC[C@@H]2c2ccc(C(F)(F)F)cc2)c1F` (stereo partly drawn) [Example 175, N-[(2-tert-butyltetrahydropyran-3-yl)methyl]-5-fluoro-6-[(2R)-2-[4-(trifluoromethyl)phenyl]pyrrolidin-1-yl]pyrimidin-4-amine], the figure is less than 10 µM; as for `CC(C)C1CCC(CNc2ncnc(N3CCC[C@@H]3c3ccc(C(F)(F)F)cc3)c2F)CC1` (stereo partly drawn) [Example 178, 5-fluoro-N-[(4-isopropylcyclohexyl)methyl]-6-[(2R)-2-[4-(trifluoromethyl)phenyl]pyrrolidin-1-yl]pyrimidin-4-amine], less than 0.5 µM. In the case of `Fc1c(NCC2CCCO2)ncnc1N1CCC[C@@H]1c1ccc(C(F)(F)F)cc1` (stereo partly drawn) [Example 181, 5-fluoro-N-(tetrahydrofuran-2-ylmethyl)-6-[(2R)-2-[4-(trifluoromethyl)phenyl]pyrrolidin-1-yl]pyrimidin-4-amine], the IC50 is less than 10 µM. On to `O=S1(=O)CCC(CNc2ncnc(N3CCC[C@@H]3c3ccc(C(F)(F)F)cc3)c2F)C1` (stereo partly drawn) [Example 184, N-[(1,1-dioxothiolan-3-yl)methyl]-5-fluoro-6-[(2R)-2-[4-(trifluoromethyl)phenyl]pyrrolidin-1-yl]pyrimidin-4-amine], for which the IC50 was less than 0.5 µM. As for `[O-][n+]1cccc(CNc2ncnc(N3CCC[C@@H]3c3ccc(C(F)(F)F)cc3)c2F)c1` [Example 193, 5-fluoro-N-[(1-oxidopyridin-1-ium-3-yl)methyl]-6-[(2R)-2[4-(trifluoromethyl)phenyl]pyrrolidin-1-yl]pyrimidin-4-amine], the IC50 was less than 10 µM. Still for that read-out and setting: as for `[O-][n+]1ccc(CNc2ncnc(N3CCC[C@@H]3c3ccc(C(F)(F)F)cc3)c2F)cc1` [Example 194, 5-fluoro-N-[(1-oxidopyridin-1-ium-4-yl)methyl]-6-[(2R)-2-[4-(trifluoromethyl)phenyl]pyrrolidin-1-yl]pyrimidin-4-amine], the figure is less than 2 µM. With `COC1CC(c2ccc(C(F)(F)F)cc2)N(c2ncnc(NCc3ccc(C)nc3)c2F)C1` (stereo not drawn) [Example 212, 5-fluoro-6-[4-methoxy-2-[4-(trifluoromethyl)phenyl]pyrrolidin-1-yl]-N-[(6-methyl-3-pyridyl)methyl]pyrimidin-4-amine], the IC50 was less than 10 µM. The same measure, in the same setting: with `Cc1cnc(CNc2ncnc(N3CCCC3c3ccc(C(F)(F)F)cc3)c2F)o1` (stereo not drawn) [Example 213, 5-fluoro-N-[(5-methyloxazol-2-yl)methyl]-6-[2-[4-(trifluoromethyl)phenyl]pyrrolidin-1-yl]pyrimidin-4-amine] the figure was less than 10 µM; with `Oc1nnc(CNc2ncnc(N3CCCC3c3ccc(C(F)(F)F)cc3)c2F)o1` (stereo not drawn) [Example 214, 5-(((5-fluoro-6-(2-(4-(trifluoromethyl)phenyl)pyrrolidin-1-yl)pyrimidin-4-yl)amino)methyl)-1,3,4-oxadiazol-2-ol], less than 10 µM. Take `CCC(Nc1ncnc(N2CCCC2c2ccc(C(F)(F)F)cc2)c1F)c1noc(C)n1` (stereo not drawn) [Example 215, 5-fluoro-N-[1-(5-methyl-1,2,4-oxadiazo1-3-yl)propyl]-6-[2-[4-(trifluoromethyl)phenyl]pyrrolidin-1-yl]pyrimidin-4-amine]: the IC50 was less than 10 µM.

For `OCc1cccc(CNc2ncnc(N3CCC[C@@H]3c3ccc(C(F)(F)F)cc3)c2F)c1` [Example 217, [3-[[[5-fluoro-6-[(2R)-2-[4-(trifluoromethyl)phenyl]pyrrolidin-1-yl]pyrimidin-4-yl]amino]methyl]phenyl]methanol], the IC50 is less than 10 µM. The same measure, in the same setting: as for `Fc1c(NCC2CCCC2)ncnc1N1CCC[C@@H]1c1ccc(C(F)(F)F)cc1` [Example 218, N-(cyclopentylmethyl)-5-fluoro-6-[(2R)-2-[4-(trifluoromethyl)phenyl]pyrrolidin-1-yl]pyrimidin-4-amine], the figure is less than 10 µM; as for `CS(=O)(=O)c1ccc(CNc2ncnc(N3CCC[C@@H]3c3ccc(C(F)(F)F)cc3)c2F)cc1` [Example 219, 5-fluoro-N-[(4-methylsulfonylphenyl)methyl]-6-[(2R)-2-[4-(trifluoromethyl)phenyl]pyrrolidin-1-yl]pyrimidin-4-amine], less than 10 µM; as for `O=C(O)C[C@H]1CC[C@H](CNc2ncnc(N3CCOC[C@@H]3c3ccc(OC(F)(F)F)cc3)c2F)CC1` [Example 243, 2-[4-[[[5-fluoro-6-[(3S)-3-[4-(trifluoromethoxy)phenyl]morpholin-4-yl]pyrimidin-4-yl]amino]methyl]cyclohexyl]acetic acid], less than 0.5 µM. Same read-out and setting: as for `CNC(=O)Cc1ccc(CNc2ncnc(N3CCOC[C@@H]3c3ccc(C(F)(F)F)cc3)c2F)cc1` [Example 244, 2-[4-[[[5-fluoro-6-[(3S)-3-[4-(trifluoromethyl)phenyl]morpholin-4-yl]pyrimidin-4-yl]amino]methyl]phenyl]-N-methyl-acetamide], the figure is less than 2 µM.

In the case of `NC(=O)C1(CNc2ncnc(N3CCOC[C@@H]3c3ccc(C(F)(F)F)cc3)c2F)CCCC1` [Example 249, 1-[[[5-fluoro-6-[(3S)-3-[4-(trifluoromethyl)phenyl]morpholin-4-yl]pyrimidin-4-yl]amino]methyl] cyclopentanecarboxamide], the IC50 was less than 10 µM. The same measure, in the same setting: with `CN(C)C(=O)C1(CNc2ncnc(N3CCOC[C@@H]3c3ccc(C(F)(F)F)cc3)c2F)CCCC1` [Example 250, 1-[[[5-fluoro-6-[(3S)-3-[4-(trifluoromethyl)phenyl]morpholin-4-yl]pyrimidin-4-yl]amino]methyl]-N,N-dimethyl-cyclopentanecarboxamide] the figure was less than 10 µM; with `CS(=O)(=O)NC1CCCC1CNc1ncnc(N2CCOC[C@@H]2c2ccc(C(F)(F)F)cc2)c1F` (stereo partly drawn) [Example 251, N-[2-[[[5-fluoro-6-[(3S)-3-[4-(trifluoromethyl)phenyl]morpholin-4-yl]pyrimidin-4-yl]amino]methyl]cyclopentyl] methanesulfonamide], less than 10 µM; with `NCCNC(=O)C1(CNc2ncnc(N3CCOC[C@@H]3c3ccc(C(F)(F)F)cc3)c2F)CCOCC1` [Example 256, N-(2-aminoethyl)-4-[[[5-fluoro-6-[(3S)-3-[4-(trifluoromethyl)phenyl]morpholin-4-yl]pyrimidin-4-yl]amino]methyl]tetrahydropyran-4-carboxamide], less than 10 µM. Turning to `O=C(O)C1(CNc2ncnc(N3CCOCC3c3ccc(C(F)(F)F)cc3)c2F)CCOCC1` (stereo not drawn) [Example 268, 4-[[[5-fluoro-6-[3-[4-(trifluoromethyl)phenyl]morpholin-4-yl]pyrimidin-4-yl]amino]methyl]tetrahydropyran-4-carboxylic acid], the IC50 is less than 10 µM. On to `CS(=O)(=O)c1ccc(CNc2ncnc(N3CCOC[C@@H]3c3ccc(C(F)(F)F)cc3)c2F)cn1` [Example 293, 5-fluoro-N-[(6-methylsulfonyl-3-pyridyl)methyl]-6-[(3S)-3-[4-(trifluoromethyl)phenyl]morpholin-4-yl]pyrimidin-4-amine], for which the IC50 was less than 1 µM. For `CC(C)(CCS(C)(=O)=O)CNc1ncnc(N2CCOC[C@@H]2c2ccc(C(F)(F)F)cc2)c1F` [Example 294, N-(2,2-dimethyl-4-methylsulfonyl-butyl)-5-fluoro-6-[(3S)-3-[4-(trifluoromethyl)phenyl]morpholin-4-yl]pyrimidin-4-amine], the IC50 is less than 10 µM. Still for that read-out and setting: as for `OCC1(CNc2ncnc(N3CCOC[C@@H]3c3ccc(C(F)(F)F)cc3)c2F)CC1` [Example 296, [1-[[[5-fluoro-6-[(3S)-3-[4-(trifluoromethyl)phenyl]morpholin-4-yl]pyrimidin-4-yl]amino]methyl]cyclopropyl] methanol], the figure is less than 10 µM; as for `CS(=O)(=O)NC1CCN(c2ncnc(N3CCOC[C@@H]3c3ccc(C(F)(F)F)cc3)c2F)CC1` [Example 297, N-[1-[5-fluoro-6-[(3 S)-3-[4-(trifluoromethyl)phenyl]morpholin-4-yl]pyrimidin-4-yl]-4-piperidyl]methanesulfonamide], less than 10 µM. Take `CS(=O)(=O)N1CCOC(CNc2ncnc(N3CCOC[C@@H]3c3ccc(C(F)(F)F)cc3)c2F)C1` (stereo partly drawn) [Example 309, 5-fluoro-N-[(4-methylsulfonylmorpholin-2-yl)methyl]-6-[(3S)-3-[4-(trifluoromethyl)phenyl]morpholin-4-yl]pyrimidin-4-amine]: the IC50 was less than 2 µM.

On to `NC(=O)Cc1ccc(CNc2ncnc(N3CCCC3c3nc4ccccc4s3)c2F)cc1` (stereo not drawn) [Example 310, 2-[4-[[[6-[2-(1,3-benzothiazol-2-yl)pyrrolidin-1-yl]-5-fluoro-pyrimidin-4-yl]amino]methyl]phenyl]acetamide], for which the IC50 is less than 0.5 µM.

For the compound `NC(=O)Cc1ccc(CNc2ncnc(N3CCCC3c3cccc4ccccc34)c2F)cc1` (stereo not drawn) [Example 311, 2-[4-[[[5-fluoro-6-[2-(1-naphthyl)pyrrolidin-1-yl]pyrimidin-4-yl]amino]methyl]phenyl] acetamide], the IC50 was less than 0.5 µM.

For the compound `NC(=O)Cc1ccc(CNc2ncnc(N3CCCC3c3ccc4ccccc4c3)c2F)cc1` (stereo not drawn) [Example 312, 2-[4-[[[5-fluoro-6-[2-(2-naphthyl)pyrrolidin-1-yl]pyrimidin-4-yl]amino]methyl]phenyl] acetamide], the IC50 was less than 0.5 µM.

These data come from patent US10689383B2, “Optionally fused heterocyclyl-substituted derivatives of pyrimidine useful for the treatment of inflammatory, metabolic, oncologic and autoimmune diseases” (NUEVOLUTION A/S, priority 2014, dated 2020).
